# Like-named read-outs stand apart in the source and are kept apart here.
# Tests used:
# [1] = tested on: Corynebacterium pseudodiphtheriae; test: Antibacterial assay zone of inhibition Cp; format: cell-based
# Micrococcus luteus [2] = test: Antibacterial assay zone of inhibition Ml; format: cell-based
# Corynebacterium xerosis [3] = test: Antibacterial assay zone of inhibition Cx; format: cell-based
# Klebsiella pneumonia [4] = test: Antibacterial assay zone of inhibition Kp; format: cell-based
# Escherichia coli [5] = test: Antibacterial assay zone of inhibition Ec; format: cell-based
# [6] = tested on: Burkholderia thailandensis; format: cell-based
# Bacillus cereus [7] = test: Antibacterial assay zone of inhibition Bc; format: cell-based
# Pseudomonas aeruginosa [8] = test: Antibacterial assay zone of inhibition Pa; format: cell-based
# Mycobacterium smegmatis [9] = test: Antibacterial assay zone of inhibition Ms; format: cell-based
# Mycobacterium smegmatis [10] = test: Antibacterial preliminary screening MS; format: cell-based; conditions: score 0-3; further: key: 0 represents no inhibition; 3 is comparable to commercial antibiotic control
# Escherichia coli [11] = test: Antibacterial preliminary screening EC; format: cell-based; conditions: score 0-3; further: key: 0 represents no inhibition; 3 is comparable to commercial antibiotic control
# [12] = biological target: T1, Mycobacterium tuberculosis IspD (MtIspD) (Mycobacterium tuberculosis, UniProt P9WKG9); test: Thermal shift assay against MtIspD; format: binding
# T1 sequence (P9WKG9 1-231): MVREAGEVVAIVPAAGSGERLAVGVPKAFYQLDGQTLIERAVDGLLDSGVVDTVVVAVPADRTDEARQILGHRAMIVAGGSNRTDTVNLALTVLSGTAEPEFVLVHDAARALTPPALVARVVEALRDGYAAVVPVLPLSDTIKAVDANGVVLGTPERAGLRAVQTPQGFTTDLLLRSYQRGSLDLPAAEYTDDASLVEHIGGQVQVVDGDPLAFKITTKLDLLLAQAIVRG
# Pseudomonas aeruginosa [13] = test: Antibacterial preliminary screening PA; format: cell-based; conditions: score 0-3; further: key: 0 represents no inhibition; 3 is comparable to commercial antibiotic control
# Micrococcus luteus [14] = test: Antibacterial preliminary screening ML; format: cell-based; conditions: score 0-3; further: key: 0 represents no inhibition; 3 is comparable to commercial antibiotic control
# lettuce seeds = test: Lettuce leaf assay; format: in vivo; parameters: key: 0 (no effect); 5(complete inhibition or bleaching); conditions: ranking 0-5
# Text: The lettuce leaf assay is a qualitative assay used to determine the relative effectiveness of the test compounds at inhibition of germination of seeds and root development as well as causing bleaching of leaves. Isoprenoid synthesis is vital in plants as isoprene-product gibberellins are a class of growth hormones in plants responsible for stimulating cell elongation and division. In addition, some carotenoids are involved in photosynthesis as components of the electron transport chain. MEP pathway inhibitors have the potential to prevent synthesis of these necessary cellular components and growth hormones resulting in inhibition of germination and root development as well as causing chlorosis, or bleaching in the leaves. The lettuce leaf assay, explores the effects of compounds as potential MEP pathway inhibitors by evaluating the effect on bleaching, root development, and germination of lettuce seeds, which all rely on isoprenoid biosynthesis. […] The assay is a qualitative assay and the effects are given rankings from 0 (no effect) to 5 (complete inhibition or bleaching). In this assay, compounds are dissolved in a volatile organic solvent and applied to filter paper in a petri dish. The solvent is allowed to evaporate and lettuce seeds are applied followed by the addition of 5 mL of water to obtain the necessary concentrations. Seeds are allowed to grow and they are observed on day 3 and day 4 for evaluation.
# [15] = biological target: Lycopersicon esculentum IspE (LeIspE) (Solanum lycopersicum, UniProt P93841); test: Thermal shift assay against LeIspE; format: binding
# AtIspF = AtIspF (Arabidopsis thaliana, UniProt Q9CAK8); test: University of Hamburg photometric enzymatic inhibition assay AtIspF; format: biochemical; conditions: read-out: AtIspF IC50
# Procedure: (§1) Compounds were subjected to a photometric enzymatic assay to test for inhibition of the plant enzymes Arabidopsis thaliana IspD and IspF, and IspE from Lycopersicon esculentum.
# The IspF assay mixture conditions were as follows: 100 mM Tris hydrochloride at pH 8.0 with 10 mM MgCl2, 1 mM dithiothreitol, 2.5 mM potassium phosphoenol pyruvate, 2 mM ATP, 1 mM of 4-diphosphocytidyl-2C methylerythritol 2-phosphate, 460 μM NADH, 1.1% (v/v) DMSO, 0.5 U CMP kinase, 2.4 mU IspF, 1 U lactate dehydrogenase, 1 U pyruvate kinase in 180 μL of solution. Solutions were incubated at 27° C. and monitored photometrically.
# AtIspD = AtIspD (Arabidopsis thaliana, UniProt P69834); test: University of Hamburg photometric enzymatic inhibition assay AtIspD; format: biochemical; conditions: read-out: AtIspD IC50
# Procedure: as §1
# The procedure for AtIspD enzymatic inhibition assay, was performed by making an assay mixture of 100 mM Tris hydrochloride at pH 8.0 with 10 mM MgCl2, 1 mM dithiothreitol, 2.5 mM potassium phosphoenol pyruvate, 2.1 mM CTP, 2 mM ATP, 1 mM of (2R,3S)-2,3-dihydroxy-4-oxopentyl phosphate, 460 μM NADH, 1.1% (v/v) DMSO, 0.4 U IspE, 1 U lactate dehydrogenase, 1 U pyruvate kinase and 2.4 mU IspD in 180 μL of solution. Solutions were incubated at 27° C. and monitored photometrically. By preparing the assay mixture with a large excess of IspE compared to IspD, any inhibition of IspE by the test inhibitor would be insignificant compared to IspD and therefore the rate of the reaction is determined by IspD activity.
# LeIspE = LeIspE (Solanum lycopersicum, UniProt P93841); test: University of Hamburg photometric enzymatic inhibition assay LeIspE; format: biochemical, Lycopersicon esculentum; conditions: read-out: LeIspE IC50
# Procedure: as §1
# The IspE assay conditions were very similar to the IspD assay in which the assay mixture was composed of 100 mM Tris hydrochloride at pH 8.0 with 10 mM MgCl2, 1 mM dithiothreitol, 2.5 mM potassium phosphoenol pyruvate, 2 mM ATP, 1 mM of 4-Diphosphocytidyl-2-C-methylerythritol, 460 μM NADH, 1.1% (v/v) DMSO, 2.4 mU IspE, 1 U lactate dehydrogenase, 1 U pyruvate kinase in 180 μL of solution. Solutions were incubated at 27° C. and monitored photometrically.
# [16] = tested on: Burkholderia thailandensis; format: cell-based; conditions: preliminary screening, score 0-3
# Corynebacterium xerosis [17] = test: Antibacterial preliminary screening CX; format: cell-based; conditions: score 0-3
# Klebsiella pneumonia [18] = test: Antibacterial preliminary screening KP; format: cell-based; conditions: score 0-3
# Bacillus cereus [19] = test: Antibacterial preliminary screening BC; format: cell-based; conditions: score 0-3
# [20] = tested on: Corynebacterium pseudodiphtheriae; test: Antibacterial preliminary screening CP; format: cell-based; conditions: score 0-3;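 further: 0 is no inhibition and 3 matches the commercial antibiotic control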
# AtIspF, sequence (Q9CAK8 53-231): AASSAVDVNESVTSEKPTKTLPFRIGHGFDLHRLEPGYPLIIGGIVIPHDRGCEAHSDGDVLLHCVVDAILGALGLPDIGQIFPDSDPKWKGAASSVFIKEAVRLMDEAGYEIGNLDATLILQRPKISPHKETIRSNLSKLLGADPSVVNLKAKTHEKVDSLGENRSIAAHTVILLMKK
# LeIspE, sequence (P93841 89-401): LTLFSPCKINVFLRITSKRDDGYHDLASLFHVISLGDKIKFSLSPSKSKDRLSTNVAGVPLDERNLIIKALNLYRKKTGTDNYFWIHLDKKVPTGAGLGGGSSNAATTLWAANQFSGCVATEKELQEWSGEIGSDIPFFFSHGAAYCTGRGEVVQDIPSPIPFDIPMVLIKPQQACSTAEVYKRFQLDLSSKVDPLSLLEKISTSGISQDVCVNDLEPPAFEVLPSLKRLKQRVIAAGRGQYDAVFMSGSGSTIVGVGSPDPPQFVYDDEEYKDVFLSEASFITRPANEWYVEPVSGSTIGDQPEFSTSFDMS
# Lycopersicon esculentum IspE (LeIspE), sequence (P93841 89-401): as above
# AtIspD, sequence (P69834 62-302): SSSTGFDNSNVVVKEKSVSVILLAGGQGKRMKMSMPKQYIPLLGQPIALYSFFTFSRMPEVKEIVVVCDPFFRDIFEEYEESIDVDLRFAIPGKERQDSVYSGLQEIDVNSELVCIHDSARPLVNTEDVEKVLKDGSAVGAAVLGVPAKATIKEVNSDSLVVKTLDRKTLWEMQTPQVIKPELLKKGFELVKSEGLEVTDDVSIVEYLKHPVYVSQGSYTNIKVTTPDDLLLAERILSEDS
structure (smiles),measurement,setting,value
Cc1ccc(OCc2nnc(-c3nc4ccccc4s3)o2)cc1 [HGN-825],Antibacterial Cp zone of inhibition,[1]; 0.1 mM,0 millimeters
same,Antibacterial Cp zone of inhibition,[1]; 0.5 mM,0 millimeters
same,Antibacterial Cp zone of inhibition,[1]; 1 mM,0 millimeters
same,Antibacterial Ml zone of inhibition,Micrococcus luteus [2]; 0.1 mM,0 millimeters
same,Antibacterial Ml zone of inhibition,Micrococcus luteus [2]; 0.5 mM,0 millimeters
same,Antibacterial Ml zone of inhibition,Micrococcus luteus [2]; 1 mM,11 millimeters
same,Antibacterial Cx zone of inhibition,Corynebacterium xerosis [3]; 0.1 mM,0 millimeters
same,Antibacterial Cx zone of inhibition,Corynebacterium xerosis [3]; 0.5 mM,0 millimeters
same,Antibacterial Cx zone of inhibition,Corynebacterium xerosis [3]; 1 mM,0 millimeters
same,Antibacterial Kp zone of inhibition,Klebsiella pneumonia [4]; 0.1 mM,0 millimeters
same,Antibacterial Kp zone of inhibition,Klebsiella pneumonia [4]; 0.5 mM,0 millimeters
same,Antibacterial Kp zone of inhibition,Klebsiella pneumonia [4]; 1 mM,0 millimeters
same,Antibacterial Ec zone of inhibition,Escherichia coli [5]; 0.1 mM,0 millimeters
same,Antibacterial Ec zone of inhibition,Escherichia coli [5]; 0.5 mM,0 millimeters
same,Antibacterial Ec zone of inhibition,Escherichia coli [5]; 1 mM,0 millimeters
same,Antibacterial Bt zone of inhibition,[6],0 millimeters
same,Antibacterial Bc zone of inhibition,Bacillus cereus [7]; 0.1 mM,0 millimeters
same,Antibacterial Bc zone of inhibition,Bacillus cereus [7]; 0.5 mM,0 millimeters
same,Antibacterial Bc zone of inhibition,Bacillus cereus [7]; 1 mM,11.5 millimeters
same,Antibacterial Pa zone of inhibition,Pseudomonas aeruginosa [8]; 0.1 mM,0 millimeters
same,Antibacterial Pa zone of inhibition,Pseudomonas aeruginosa [8]; 0.5 mM,0 millimeters
same,Antibacterial Pa zone of inhibition,Pseudomonas aeruginosa [8]; 1 mM,0 millimeters
same,Antibacterial Ms zone of inhibition,Mycobacterium smegmatis [9]; 0.1 mM,0 millimeters
same,Antibacterial Ms zone of inhibition,Mycobacterium smegmatis [9]; 0.5 mM,13 millimeters
same,Antibacterial Ms zone of inhibition,Mycobacterium smegmatis [9]; 1 mM,18 millimeters
COc1ccc(OCc2nnc(-c3nc4ccccc4s3)o2)cc1 [HGN-833],Antibacterial Cp zone of inhibition,[1]; 0.1 mM,0 millimeters
same,Antibacterial Cp zone of inhibition,[1]; 0.5 mM,0 millimeters
same,Antibacterial Cp zone of inhibition,[1]; 1 mM,14 millimeters
same,Antibacterial Ml zone of inhibition,Micrococcus luteus [2]; 0.1 mM,0 millimeters
same,Antibacterial Ml zone of inhibition,Micrococcus luteus [2]; 0.5 mM,0 millimeters
same,Antibacterial Ml zone of inhibition,Micrococcus luteus [2]; 1 mM,13 millimeters
same,Antibacterial Cx zone of inhibition,Corynebacterium xerosis [3]; 0.1 mM,0 millimeters
same,Antibacterial Cx zone of inhibition,Corynebacterium xerosis [3]; 0.5 mM,0 millimeters
same,Antibacterial Cx zone of inhibition,Corynebacterium xerosis [3]; 1 mM,15 millimeters
same,Antibacterial Kp zone of inhibition,Klebsiella pneumonia [4]; 0.1 mM,0 millimeters
same,Antibacterial Kp zone of inhibition,Klebsiella pneumonia [4]; 0.5 mM,0 millimeters
same,Antibacterial Kp zone of inhibition,Klebsiella pneumonia [4]; 1 mM,0 millimeters
same,Antibacterial Ec zone of inhibition,Escherichia coli [5]; 0.1 mM,0 millimeters
same,Antibacterial Ec zone of inhibition,Escherichia coli [5]; 0.5 mM,0 millimeters
same,Antibacterial Ec zone of inhibition,Escherichia coli [5]; 1 mM,0 millimeters
same,Antibacterial Bt zone of inhibition,[6]; 0.1 mM,0 12 17 millimeters
same,Antibacterial Bt zone of inhibition,[6]; 0.5 mM,0 12 17 millimeters
same,Antibacterial Bt zone of inhibition,[6]; 1 mM,0 12 17 millimeters
same,Antibacterial Bc zone of inhibition,Bacillus cereus [7]; 0.1 mM,0 millimeters
same,Antibacterial Bc zone of inhibition,Bacillus cereus [7]; 0.5 mM,10 millimeters
same,Antibacterial Bc zone of inhibition,Bacillus cereus [7]; 1 mM,15 millimeters
same,Antibacterial Pa zone of inhibition,Pseudomonas aeruginosa [8]; 0.1 mM,0 millimeters
same,Antibacterial Pa zone of inhibition,Pseudomonas aeruginosa [8]; 0.5 mM,0 millimeters
same,Antibacterial Pa zone of inhibition,Pseudomonas aeruginosa [8]; 1 mM,0 millimeters
same,Antibacterial Ms zone of inhibition,Mycobacterium smegmatis [9]; 0.1 mM,0 millimeters
same,Antibacterial Ms zone of inhibition,Mycobacterium smegmatis [9]; 0.5 mM,0 millimeters
same,Antibacterial Ms zone of inhibition,Mycobacterium smegmatis [9]; 1 mM,0 millimeters
"c1ccc(-c2cccc(-c3nnc(-c4cc5ccccc5[nH]4)o3)c2)cc1 [HGN-287, 2-([1,1′-biphenyl]-3-yl)-5-(1H-indol-2-yl)-1,3,4-oxadiazole]",MS score,Mycobacterium smegmatis [10],0
same,EC score,Escherichia coli [11],0
same,MtIspD melting point change,[12],0.5 °C
same,MtIspD melting temp,[12],48.5 °C
same,PA score,Pseudomonas aeruginosa [13],0
same,ML score,Micrococcus luteus [14],0
same,Bleaching,lettuce seeds; 0.15 mM,0
same,Germination,lettuce seeds; 0.15 mM,0
same,Root Dev.,lettuce seeds; 0.15 mM,0
same,Bleaching,lettuce seeds; 0.3 mM,0
same,Germination,lettuce seeds; 0.3 mM,0
same,Root Dev.,lettuce seeds; 0.3 mM,0
same,LeIspE melting point change,[15],−0.25 °C
same,LeIspE melting temp,[15],49.25 °C
same,IC50,AtIspF,> 1000 µM
same,IC50,AtIspD,501 ± 82 µM
same,IC50,LeIspE,> 1000 µM
same,BT score,[16],0
same,CX score,Corynebacterium xerosis [17],0
same,KP score,Klebsiella pneumonia [18],0
same,BC score,Bacillus cereus [19],0
same,CP score,[20],0
"c1ccc(-c2ccc(-c3nnc(-c4cc5ccccc5[nH]4)o3)cc2)cc1 [HGN-288, 2-([1,1′-biphenyl]-4-yl)-5-(1H-indol-2-yl)-1,3,4-oxadiazole]",MS score,Mycobacterium smegmatis [10],0
same,EC score,Escherichia coli [11],0
same,MtIspD melting point change,[12],1.0 °C
same,MtIspD melting temp,[12],49.0 °C
same,PA score,Pseudomonas aeruginosa [13],0
same,ML score,Micrococcus luteus [14],0
same,Bleaching,lettuce seeds; 0.1 mM,0
same,Germination,lettuce seeds; 0.1 mM,0
same,Root Dev.,lettuce seeds; 0.1 mM,0
same,Bleaching,lettuce seeds; 0.2 mM,0
same,Germination,lettuce seeds; 0.2 mM,0
same,Root Dev.,lettuce seeds; 0.2 mM,0
same,LeIspE melting point change,[15],−1.50 °C
same,LeIspE melting temp,[15],48.00 °C
same,IC50,AtIspF,> 1000 µM
same,IC50,AtIspD,255 ± 35 µM
same,IC50,LeIspE,> 1000 µM
same,BT score,[16],0
same,CX score,Corynebacterium xerosis [17],0
same,KP score,Klebsiella pneumonia [18],0
same,BC score,Bacillus cereus [19],0
same,CP score,[20],0
"COc1ccc(-c2nnc(-c3cc4ccccc4[nH]3)o2)cc1 [HGN-223, 2-(1H-indol-2-yl)-5-(4-methoxyphenyl)-1,3,4-oxadiazole]",MS score,Mycobacterium smegmatis [10],0
same,EC score,Escherichia coli [11],0
same,MtIspD melting point change,[12],0.0 °C
same,MtIspD melting temp,[12],48.0 °C
same,PA score,Pseudomonas aeruginosa [13],0
same,ML score,Micrococcus luteus [14],0
same,Bleaching,lettuce seeds; 0.5 mM,0
same,Germination,lettuce seeds; 0.5 mM,1
same,Root Dev.,lettuce seeds; 0.5 mM,0
same,Bleaching,lettuce seeds; 1.0 mM,0
same,Germination,lettuce seeds; 1.0 mM,4
same,Root Dev.,lettuce seeds; 1.0 mM,0
same,LeIspE melting point change,[15],−0.25 °C
same,LeIspE melting temp,[15],49.25 °C
same,IC50,AtIspF,> 1000 µM
same,IC50,AtIspD,209 ± 29 µM
same,IC50,LeIspE,126 ± 12 µM
same,BT score,[16],0
same,CX score,Corynebacterium xerosis [17],0
same,KP score,Klebsiella pneumonia [18],0
same,BC score,Bacillus cereus [19],0
same,CP score,[20],0
